Assays:
[1] = Solubility (Sol., Table 1); format: physicochemical
[2] = system: Aspergillus niger; test: Extended time kill study, Example 34 (0 to 24 h); format: cell-based
Method in brief: (§1)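 Strain suspensions prepared as for MIC testing were mixed 1:1 with compound solution at higher multiples of MIC. Samples taken over 0 to 24 h were diluted in test medium and plated on agar, and colonies were counted after 24–48 h incubation.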

[3] = system: Candida albicans; test: Extended time kill study, Example 34 (0 to 24 h); format: cell-based
Method in brief: as §1

[4] = system: Escherichia coli; test: Extended time kill study, Example 34 (0 to 24 h); format: cell-based
Method in brief: as §1

[5] = system: Pseudomonas aeruginosa; test: Extended time kill study, Example 34 (0 to 24 h); format: cell-based
Method in brief: as §1

CCCCCCCCCCCCOC(=O)C(C)NC.Cl (stereo not drawn) [Nex-59, Dodecyl 2-(methylamino)propanoate hydrochloride]
Sol. [1]: 33%
Viable counts in Log10 CFU/mL ([2]; 1 × MIC, 1 h): 5.34 Log10 CFU/mL
Viable counts in Log10 CFU/mL ([2]; 1 × MIC, 2 h): 5.48 Log10 CFU/mL
Viable counts in Log10 CFU/mL ([2]; 1 × MIC, 4 h): 5.08 Log10 CFU/mL
Viable counts in Log10 CFU/mL ([2]; 1 × MIC, 6 h): 5.30 Log10 CFU/mL
Viable counts in Log10 CFU/mL ([2]; 1 × MIC, 24 h): 3.78 Log10 CFU/mL
Viable counts in Log10 CFU/mL ([2]; 1 × MIC, 0 h): 5.41 Log10 CFU/mL
Viable counts in Log10 CFU/mL ([2]; 2 × MIC, 1 h): 5.11 Log10 CFU/mL
Viable counts in Log10 CFU/mL ([2]; 2 × MIC, 2 h): 4.70 Log10 CFU/mL
Viable counts in Log10 CFU/mL ([2]; 2 × MIC, 4 h): 4.48 Log10 CFU/mL
Viable counts in Log10 CFU/mL ([2]; 2 × MIC, 6 h): 3.95 Log10 CFU/mL
Viable counts in Log10 CFU/mL ([2]; 2 × MIC, 24 h): <2 Log10 CFU/mL
Viable counts in Log10 CFU/mL ([2]; 2 × MIC, 0 h): 5.36 Log10 CFU/mL
Viable counts in Log10 CFU/mL ([2]; 4 × MIC, 1 h): 5.08 Log10 CFU/mL
Viable counts in Log10 CFU/mL ([2]; 4 × MIC, 2 h): 4.48 Log10 CFU/mL
Viable counts in Log10 CFU/mL ([2]; 4 × MIC, 4 h): 3.85 Log10 CFU/mL
Viable counts in Log10 CFU/mL ([2]; 4 × MIC, 6 h): 4.04 Log10 CFU/mL
Viable counts in Log10 CFU/mL ([2]; 4 × MIC, 24 h): <2 Log10 CFU/mL
Viable counts in Log10 CFU/mL ([2]; 4 × MIC, 0 h): 5.29 Log10 CFU/mL
Viable counts in Log10 CFU/mL ([3]; 1 × MIC, 1 h): 5.41 Log10 CFU/mL
Viable counts in Log10 CFU/mL ([3]; 1 × MIC, 2 h): 5.24 Log10 CFU/mL
Viable counts in Log10 CFU/mL ([3]; 1 × MIC, 4 h): 4.96 Log10 CFU/mL
Viable counts in Log10 CFU/mL ([3]; 1 × MIC, 6 h): 4.40 Log10 CFU/mL
Viable counts in Log10 CFU/mL ([3]; 1 × MIC, 24 h): >6 Log10 CFU/mL
Viable counts in Log10 CFU/mL ([3]; 1 × MIC, 0 h): 5.68 Log10 CFU/mL
Viable counts in Log10 CFU/mL ([3]; 2 × MIC, 1 h): 3.48 Log10 CFU/mL
Viable counts in Log10 CFU/mL ([3]; 2 × MIC, 2 h): 3.00 Log10 CFU/mL
Viable counts in Log10 CFU/mL ([3]; 2 × MIC, 4 h): 3.00 Log10 CFU/mL
Viable counts in Log10 CFU/mL ([3]; 2 × MIC, 6 h): <2.70 Log10 CFU/mL
Viable counts in Log10 CFU/mL ([3]; 2 × MIC, 24 h): <1 Log10 CFU/mL
Viable counts in Log10 CFU/mL ([3]; 2 × MIC, 0 h): 5.75 Log10 CFU/mL
Viable counts in Log10 CFU/mL ([3]; 4 × MIC, 1 h): <3 Log10 CFU/mL
Viable counts in Log10 CFU/mL ([3]; 4 × MIC, 2 h): <3 Log10 CFU/mL
Viable counts in Log10 CFU/mL ([3]; 4 × MIC, 4 h): <2.70 Log10 CFU/mL
Viable counts in Log10 CFU/mL ([3]; 4 × MIC, 6 h): <2.70 Log10 CFU/mL
Viable counts in Log10 CFU/mL ([3]; 4 × MIC, 24 h): <1 Log10 CFU/mL
Viable counts in Log10 CFU/mL ([3]; 4 × MIC, 0 h): 5.63 Log10 CFU/mL
Viable counts, Escherichia coli time kill study ([4]; 1 × MIC, 1 h): 1 Log10 CFU/mL
Viable counts, Escherichia coli time kill study ([4]; 1 × MIC, 2 h): <1 Log10 CFU/mL
Viable counts, Escherichia coli time kill study ([4]; 1 × MIC, 4 h): 1.85 Log10 CFU/mL
Viable counts, Escherichia coli time kill study ([4]; 1 × MIC, 6 h): 2.81 Log10 CFU/mL
Viable counts, Escherichia coli time kill study ([4]; 1 × MIC, 24 h): 7.91 Log10 CFU/mL
Viable counts, Escherichia coli time kill study ([4]; 1×MIC, time 0): 5 Log10 CFU/mL
Viable counts, Escherichia coli time kill study ([4]; 2 × MIC, 1 h): <1 Log10 CFU/mL
Viable counts, Escherichia coli time kill study ([4]; 2 × MIC, 2 h): <1 Log10 CFU/mL
Viable counts, Escherichia coli time kill study ([4]; 2 × MIC, 4 h): <1 Log10 CFU/mL
Viable counts, Escherichia coli time kill study ([4]; 2 × MIC, 6 h): <1 Log10 CFU/mL
Viable counts, Escherichia coli time kill study ([4]; 2 × MIC, 24 h): <1 Log10 CFU/mL
Viable counts, Escherichia coli time kill study ([4]; 2 × MIC, time 0): 5.12 Log10 CFU/mL
Viable counts, Escherichia coli time kill study ([4]; 4 × MIC, 1 h): <1 Log10 CFU/mL
Viable counts, Escherichia coli time kill study ([4]; 4 × MIC, 2 h): <1 Log10 CFU/mL
Viable counts, Escherichia coli time kill study ([4]; 4 × MIC, 4 h): <1 Log10 CFU/mL
Viable counts, Escherichia coli time kill study ([4]; 4 × MIC, 6 h): <1 Log10 CFU/mL
Viable counts, Escherichia coli time kill study ([4]; 4 × MIC, 24 h): <1 Log10 CFU/mL
Viable counts, Escherichia coli time kill study ([4]; 4 × MIC, time 0): 5.04 Log10 CFU/mL
Viable counts, Pseudomonas aeruginosa time kill study ([5]; 1 × MIC, 1 h): <1 Log10 CFU/mL
Viable counts, Pseudomonas aeruginosa time kill study ([5]; 1 × MIC, 2 h): <1 Log10 CFU/mL
Viable counts, Pseudomonas aeruginosa time kill study ([5]; 1 × MIC, 4 h): <1 Log10 CFU/mL
Viable counts, Pseudomonas aeruginosa time kill study ([5]; 1 × MIC, 6 h): <1 Log10 CFU/mL
Viable counts, Pseudomonas aeruginosa time kill study ([5]; 1 × MIC, 24 h): <1 Log10 CFU/mL
Viable counts, Pseudomonas aeruginosa time kill study ([5]; 1×MIC, time 0): 5.18 Log10 CFU/mL
Viable counts, Pseudomonas aeruginosa time kill study ([5]; 2 × MIC, 1 h): <1 Log10 CFU/mL
Viable counts, Pseudomonas aeruginosa time kill study ([5]; 2 × MIC, 2 h): <1 Log10 CFU/mL

Source: patent publication US20140357713A1, “ANTIMICROBIAL COMPOUNDS AND METHODS OF USE” (NexMed Holdings, Inc., priority 2012, published 2014)
